# Experimental data: ChEMBL document CHEMBL2146411, “Discovery of 3H-imidazo[4,5-c]quinolin-4(5H)-ones as potent and selective dipeptidyl peptidase IV (DPP-4) inhibitors” (Bioorg Med Chem, 2012)
# Biological target: Dipeptidyl peptidase 4 (Bos taurus, UniProt P81425)
# Sequence (P81425 whole entry): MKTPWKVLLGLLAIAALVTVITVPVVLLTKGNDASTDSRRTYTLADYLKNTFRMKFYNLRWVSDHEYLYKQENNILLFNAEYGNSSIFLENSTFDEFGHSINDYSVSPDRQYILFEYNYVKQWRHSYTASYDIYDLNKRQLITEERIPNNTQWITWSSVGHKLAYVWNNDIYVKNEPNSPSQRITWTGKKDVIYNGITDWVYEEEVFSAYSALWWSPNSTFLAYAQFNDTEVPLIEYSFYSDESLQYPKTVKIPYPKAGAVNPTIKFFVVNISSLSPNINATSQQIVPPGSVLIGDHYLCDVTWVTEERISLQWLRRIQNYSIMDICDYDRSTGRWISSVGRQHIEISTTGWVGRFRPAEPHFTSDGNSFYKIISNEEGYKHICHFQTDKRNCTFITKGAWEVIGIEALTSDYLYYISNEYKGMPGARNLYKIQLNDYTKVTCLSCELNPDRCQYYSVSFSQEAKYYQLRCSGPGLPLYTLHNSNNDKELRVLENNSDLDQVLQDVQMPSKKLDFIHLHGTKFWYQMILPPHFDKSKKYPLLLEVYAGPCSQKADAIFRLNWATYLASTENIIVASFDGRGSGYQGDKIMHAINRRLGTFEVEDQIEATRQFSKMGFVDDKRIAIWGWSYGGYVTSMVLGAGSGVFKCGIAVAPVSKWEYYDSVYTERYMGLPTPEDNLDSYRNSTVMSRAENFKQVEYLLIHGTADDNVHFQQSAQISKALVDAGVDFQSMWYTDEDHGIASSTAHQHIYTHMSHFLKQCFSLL
# Description: Inhibition of bovine DPP4 by HTS assay
compound,measurement,value
CC(C)=CCn1c(N2CCNCC2)nc2c1c(=O)[nH]c(=O)n2C,IC50,676 nM
